In ChEMBL document CHEMBL3351292, “Structure-Based Design and Synthesis of Potent Cyclic Peptides Inhibiting the YAP-TEAD Protein-Protein Interaction” (ACS Med Chem Lett, 2014):
Where a SMILES comes first, the peptide text is derived from it.

Target: Transcriptional coactivator YAP1/Transcriptional enhancer factor TEF-1 (Homo sapiens) (UniProt P46937+P28347)
Test: Inhibition of YAP/ GST-TEAD1 (unknown origin) interaction at 50 uM by surface plasmon resonance assay
Type: protein assay

Chain of Transcriptional coactivator YAP1/Transcriptional enhancer factor TEF-1 (Homo sapiens) (P28347 whole entry, looked up): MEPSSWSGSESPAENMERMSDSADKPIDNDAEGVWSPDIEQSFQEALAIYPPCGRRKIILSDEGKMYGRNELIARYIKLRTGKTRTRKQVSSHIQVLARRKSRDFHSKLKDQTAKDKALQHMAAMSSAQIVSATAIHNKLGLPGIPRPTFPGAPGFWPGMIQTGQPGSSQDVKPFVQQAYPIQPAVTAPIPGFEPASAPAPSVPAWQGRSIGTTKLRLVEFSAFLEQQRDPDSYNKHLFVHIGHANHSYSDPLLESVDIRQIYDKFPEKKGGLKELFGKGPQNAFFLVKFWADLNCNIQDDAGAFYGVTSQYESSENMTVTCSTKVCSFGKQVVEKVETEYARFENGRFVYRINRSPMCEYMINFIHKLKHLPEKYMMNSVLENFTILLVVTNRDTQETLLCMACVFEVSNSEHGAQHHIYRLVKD
Chain of Transcriptional coactivator YAP1/Transcriptional enhancer factor TEF-1 (Homo sapiens) (P46937 whole entry, looked up): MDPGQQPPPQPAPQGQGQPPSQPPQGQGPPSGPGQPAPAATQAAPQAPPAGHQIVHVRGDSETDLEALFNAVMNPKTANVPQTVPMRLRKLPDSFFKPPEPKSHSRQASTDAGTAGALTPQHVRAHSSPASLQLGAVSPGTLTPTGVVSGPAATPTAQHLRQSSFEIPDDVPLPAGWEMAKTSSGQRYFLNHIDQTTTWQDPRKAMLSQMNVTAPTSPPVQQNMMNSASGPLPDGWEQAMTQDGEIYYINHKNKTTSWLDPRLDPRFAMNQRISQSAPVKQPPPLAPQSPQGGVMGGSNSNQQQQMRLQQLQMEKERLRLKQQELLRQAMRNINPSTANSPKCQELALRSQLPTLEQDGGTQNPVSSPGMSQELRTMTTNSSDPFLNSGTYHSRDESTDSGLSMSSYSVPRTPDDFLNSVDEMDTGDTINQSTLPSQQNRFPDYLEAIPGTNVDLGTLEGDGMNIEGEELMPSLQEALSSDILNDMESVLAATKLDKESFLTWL

SMILES	inhibition [%]
CSCC[C@H](NC(=O)[C@@H]1CCCN1C(=O)[C@@H](NC(=O)[C@@H](NC(=O)[C@H](CCC(N)=O)NC(C)=O)[C@@H](C)O)C(C)C)C(=O)N[C@@H](CCCNC(=N)N)C(=O)N[C@@H](CC(C)C)C(=O)N[C@@H](CCCNC(=N)N)C(=O)N[C@@H](CCCCN)C(=O)N[C@@H](CC(C)C)C(=O)N1CCC[C@H]1C(=O)N[C@@H](CC(=O)O)C(=O)N[C@@H](CO)C(=O)N[C@@H](Cc1ccccc1)C(=O)N[C@@H](Cc1ccccc1)C(=O)N[C@@H](CCCCN)C(=O)N1CCC[C@H]1C(=O)N1CCC[C@H]1C(=O)N[C@@H](CCC(=O)O)C(N)=O	59
CSCC[C@H](NC(=O)[C@@H]1CCCN1C(=O)[C@@H](NC(=O)[C@@H](NC(C)=O)[C@@H](C)O)C(C)C)C(=O)N[C@@H](CCCNC(=N)N)C(=O)N[C@@H](CC(C)C)C(=O)N[C@@H](CCCNC(=N)N)C(=O)N[C@@H](CCCCN)C(=O)N[C@@H](CC(C)C)C(=O)N1CCC[C@H]1C(=O)N[C@@H](CC(=O)O)C(=O)N[C@@H](CO)C(=O)N[C@@H](Cc1ccccc1)C(=O)N[C@@H](Cc1ccccc1)C(=O)N[C@@H](CCCCN)C(=O)N1CCC[C@H]1C(=O)N1CCC[C@H]1C(=O)N[C@@H](CCC(=O)O)C(N)=O	60
CSCC[C@H](NC(C)=O)C(=O)N[C@@H](CCCNC(=N)N)C(=O)N[C@@H](CC(C)C)C(=O)N[C@@H](CCCNC(=N)N)C(=O)N[C@@H](CCCCN)C(=O)N[C@@H](CC(C)C)C(=O)N1CCC[C@H]1C(=O)N[C@@H](CC(=O)O)C(=O)N[C@@H](CO)C(=O)N[C@@H](Cc1ccccc1)C(=O)N[C@@H](Cc1ccccc1)C(=O)N[C@@H](CCCCN)C(=O)N1CCC[C@H]1C(=O)N1CCC[C@H]1C(=O)N[C@@H](CCC(=O)O)C(N)=O (Ac-MRLRKLPDSFFKPPE-NH2)	12
CSCC[C@H](NC(=O)[C@@H]1CCCN1C(C)=O)C(=O)N[C@@H](CCCNC(=N)N)C(=O)N[C@@H](CC(C)C)C(=O)N[C@@H](CCCNC(=N)N)C(=O)N[C@@H](CCCCN)C(=O)N[C@@H](CC(C)C)C(=O)N1CCC[C@H]1C(=O)N[C@@H](CC(=O)O)C(=O)N[C@@H](CO)C(=O)N[C@@H](Cc1ccccc1)C(=O)N[C@@H](Cc1ccccc1)C(=O)N[C@@H](CCCCN)C(=O)N1CCC[C@H]1C(=O)N1CCC[C@H]1C(=O)N[C@@H](CCC(=O)O)C(N)=O (Ac-PMRLRKLPDSFFKPPE-NH2)	25
CSCC[C@H](NC(=O)[C@@H]1CCCN1C(=O)[C@H](C)NC(=O)[C@@H](NC(=O)[C@H](CCC(N)=O)NC(=O)[C@@H]1CCCN1C(C)=O)[C@@H](C)O)C(=O)N[C@@H](CCCNC(=N)N)C(=O)N[C@@H](CC(C)C)C(=O)N[C@@H](CCCNC(=N)N)C(=O)N[C@@H](CCCCN)C(=O)N[C@@H](CC(C)C)C(=O)N1CCC[C@H]1C(=O)N[C@@H](CC(=O)O)C(=O)N[C@@H](CO)C(=O)N[C@@H](Cc1ccccc1)C(=O)N[C@@H](Cc1ccccc1)C(=O)N[C@@H](CCCCN)C(=O)N1CCC[C@H]1C(=O)N1CCC[C@H]1C(=O)N[C@@H](CCC(=O)O)C(N)=O (Ac-PQTAPMRLRKLPDSFFKPPE-NH2)	26
CSCC[C@H](NC(=O)[C@H](C)NC(=O)[C@@H](NC(=O)[C@@H](NC(=O)[C@H](CCC(N)=O)NC(=O)[C@@H]1CCCN1C(C)=O)[C@@H](C)O)C(C)C)C(=O)N[C@@H](CCCNC(=N)N)C(=O)N[C@@H](CC(C)C)C(=O)N[C@@H](CCCNC(=N)N)C(=O)N[C@@H](CCCCN)C(=O)N[C@@H](CC(C)C)C(=O)N1CCC[C@H]1C(=O)N[C@@H](CC(=O)O)C(=O)N[C@@H](CO)C(=O)N[C@@H](Cc1ccccc1)C(=O)N[C@@H](Cc1ccccc1)C(=O)N[C@@H](CCCCN)C(=O)N1CCC[C@H]1C(=O)N1CCC[C@H]1C(=O)N[C@@H](CCC(=O)O)C(N)=O (Ac-PQTVAMRLRKLPDSFFKPPE-NH2)	33
CSCC[C@H](NC(=O)[C@@H]1CCCN1C(=O)[C@@H](NC(=O)[C@@H](NC(=O)[C@H](CCC(N)=O)NC(=O)[C@@H]1CCCN1C(C)=O)[C@@H](C)O)C(C)C)C(=O)N[C@@H](CCCNC(=N)N)C(=O)N[C@@H](CC(C)C)C(=O)N[C@@H](CCCNC(=N)N)C(=O)N[C@@H](CCCCN)C(=O)N[C@@H](C)C(=O)N1CCC[C@H]1C(=O)N[C@@H](CC(=O)O)C(=O)N[C@@H](CO)C(=O)N[C@@H](Cc1ccccc1)C(=O)N[C@@H](Cc1ccccc1)C(=O)N[C@@H](CCCCN)C(=O)N1CCC[C@H]1C(=O)N1CCC[C@H]1C(=O)N[C@@H](CCC(=O)O)C(N)=O (Ac-PQTVPMRLRKAPDSFFKPPE-NH2)	0
CSCC[C@H](NC(=O)[C@@H]1CCCN1C(=O)[C@@H](NC(=O)[C@@H](NC(=O)[C@H](CCC(N)=O)NC(=O)[C@@H]1CCCN1C(C)=O)[C@@H](C)O)C(C)C)C(=O)N[C@@H](CCCNC(=N)N)C(=O)N[C@@H](CC(C)C)C(=O)N[C@@H](CCCNC(=N)N)C(=O)N[C@@H](CCCCN)C(=O)N[C@@H](CC(C)C)C(=O)N[C@@H](C)C(=O)N[C@@H](CC(=O)O)C(=O)N[C@@H](CO)C(=O)N[C@@H](Cc1ccccc1)C(=O)N[C@@H](Cc1ccccc1)C(=O)N[C@@H](CCCCN)C(=O)N1CCC[C@H]1C(=O)N1CCC[C@H]1C(=O)N[C@@H](CCC(=O)O)C(N)=O (Ac-PQTVPMRLRKLADSFFKPPE-NH2)	0
CSCC[C@H](NC(=O)[C@@H]1CCCN1C(=O)[C@@H](NC(=O)[C@@H](NC(=O)[C@H](CCC(N)=O)NC(=O)[C@@H]1CCCN1C(C)=O)[C@@H](C)O)C(C)C)C(=O)N[C@@H](CCCNC(=N)N)C(=O)N[C@@H](CC(C)C)C(=O)N[C@@H](CCCNC(=N)N)C(=O)N[C@@H](CCCCN)C(=O)N[C@@H](CC(C)C)C(=O)N1CCC[C@H]1C(=O)N[C@@H](CC(=O)O)C(=O)N[C@@H](CO)C(=O)N[C@@H](C)C(=O)N[C@@H](Cc1ccccc1)C(=O)N[C@@H](CCCCN)C(=O)N1CCC[C@H]1C(=O)N1CCC[C@H]1C(=O)N[C@@H](CCC(=O)O)C(N)=O (Ac-PQTVPMRLRKLPDSAFKPPE-NH2)	4

Results, then the molecule that gave them:

inhibition [%]	SMILES
52	CSCC[C@H](NC(=O)[C@@H]1CCCN1C(=O)[C@@H](NC(=O)[C@H](C)NC(=O)[C@H](CCC(N)=O)NC(=O)[C@@H]1CCCN1C(C)=O)C(C)C)C(=O)N[C@@H](CCCNC(=N)N)C(=O)N[C@@H](CC(C)C)C(=O)N[C@@H](CCCNC(=N)N)C(=O)N[C@@H](CCCCN)C(=O)N[C@@H](CC(C)C)C(=O)N1CCC[C@H]1C(=O)N[C@@H](CC(=O)O)C(=O)N[C@@H](CO)C(=O)N[C@@H](Cc1ccccc1)C(=O)N[C@@H](Cc1ccccc1)C(=O)N[C@@H](CCCCN)C(=O)N1CCC[C@H]1C(=O)N1CCC[C@H]1C(=O)N[C@@H](CCC(=O)O)C(N)=O
1.3	CC(=O)N1CCC[C@H]1C(=O)N[C@@H](CCC(N)=O)C(=O)N[C@H](C(=O)N[C@H](C(=O)N1CCC[C@H]1C(=O)N[C@@H](C)C(=O)N[C@@H](CCCNC(=N)N)C(=O)N[C@@H](CC(C)C)C(=O)N[C@@H](CCCNC(=N)N)C(=O)N[C@@H](CCCCN)C(=O)N[C@@H](CC(C)C)C(=O)N1CCC[C@H]1C(=O)N[C@@H](CC(=O)O)C(=O)N[C@@H](CO)C(=O)N[C@@H](Cc1ccccc1)C(=O)N[C@@H](Cc1ccccc1)C(=O)N[C@@H](CCCCN)C(=O)N1CCC[C@H]1C(=O)N1CCC[C@H]1C(=O)N[C@@H](CCC(=O)O)C(N)=O)C(C)C)[C@@H](C)O (Ac-PQTVPARLRKLPDSFFKPPE-NH2)
23	CSCC[C@H](NC(=O)[C@@H]1CCCN1C(=O)[C@@H](NC(=O)[C@@H](NC(=O)[C@H](CCC(N)=O)NC(=O)[C@@H]1CCCN1C(C)=O)[C@@H](C)O)C(C)C)C(=O)N[C@@H](C)C(=O)N[C@@H](CC(C)C)C(=O)N[C@@H](CCCNC(=N)N)C(=O)N[C@@H](CCCCN)C(=O)N[C@@H](CC(C)C)C(=O)N1CCC[C@H]1C(=O)N[C@@H](CC(=O)O)C(=O)N[C@@H](CO)C(=O)N[C@@H](Cc1ccccc1)C(=O)N[C@@H](Cc1ccccc1)C(=O)N[C@@H](CCCCN)C(=O)N1CCC[C@H]1C(=O)N1CCC[C@H]1C(=O)N[C@@H](CCC(=O)O)C(N)=O (Ac-PQTVPMALRKLPDSFFKPPE-NH2)
49	CSCC[C@H](NC(=O)[C@@H]1CCCN1C(=O)[C@@H](NC(=O)[C@@H](NC(=O)[C@H](CCC(N)=O)NC(=O)[C@@H]1CCCN1C(C)=O)[C@@H](C)O)C(C)C)C(=O)N[C@@H](CCCNC(=N)N)C(=O)N[C@@H](C)C(=O)N[C@@H](CCCNC(=N)N)C(=O)N[C@@H](CCCCN)C(=O)N[C@@H](CC(C)C)C(=O)N1CCC[C@H]1C(=O)N[C@@H](CC(=O)O)C(=O)N[C@@H](CO)C(=O)N[C@@H](Cc1ccccc1)C(=O)N[C@@H](Cc1ccccc1)C(=O)N[C@@H](CCCCN)C(=O)N1CCC[C@H]1C(=O)N1CCC[C@H]1C(=O)N[C@@H](CCC(=O)O)C(N)=O (Ac-PQTVPMRARKLPDSFFKPPE-NH2)
1.7	CSCC[C@H](NC(=O)[C@@H]1CCCN1C(=O)[C@@H](NC(=O)[C@@H](NC(=O)[C@H](CCC(N)=O)NC(=O)[C@@H]1CCCN1C(C)=O)[C@@H](C)O)C(C)C)C(=O)N[C@@H](CCCNC(=N)N)C(=O)N[C@@H](CC(C)C)C(=O)N[C@@H](C)C(=O)N[C@@H](CCCCN)C(=O)N[C@@H](CC(C)C)C(=O)N1CCC[C@H]1C(=O)N[C@@H](CC(=O)O)C(=O)N[C@@H](CO)C(=O)N[C@@H](Cc1ccccc1)C(=O)N[C@@H](Cc1ccccc1)C(=O)N[C@@H](CCCCN)C(=O)N1CCC[C@H]1C(=O)N1CCC[C@H]1C(=O)N[C@@H](CCC(=O)O)C(N)=O (Ac-PQTVPMRLAKLPDSFFKPPE-NH2)
42	CSCC[C@H](NC(=O)[C@@H]1CCCN1C(=O)[C@@H](NC(=O)[C@@H](NC(=O)[C@H](CCC(N)=O)NC(=O)[C@@H]1CCCN1C(C)=O)[C@@H](C)O)C(C)C)C(=O)N[C@@H](CCCNC(=N)N)C(=O)N[C@@H](CC(C)C)C(=O)N[C@@H](CCCNC(=N)N)C(=O)N[C@@H](C)C(=O)N[C@@H](CC(C)C)C(=O)N1CCC[C@H]1C(=O)N[C@@H](CC(=O)O)C(=O)N[C@@H](CO)C(=O)N[C@@H](Cc1ccccc1)C(=O)N[C@@H](Cc1ccccc1)C(=O)N[C@@H](CCCCN)C(=O)N1CCC[C@H]1C(=O)N1CCC[C@H]1C(=O)N[C@@H](CCC(=O)O)C(N)=O (Ac-PQTVPMRLRALPDSFFKPPE-NH2)
1.6	CSCC[C@H](NC(=O)[C@@H]1CCCN1C(=O)[C@@H](NC(=O)[C@@H](NC(=O)[C@H](CCC(N)=O)NC(=O)[C@@H]1CCCN1C(C)=O)[C@@H](C)O)C(C)C)C(=O)N[C@@H](CCCNC(=N)N)C(=O)N[C@@H](CC(C)C)C(=O)N[C@@H](CCCNC(=N)N)C(=O)N[C@@H](CCCCN)C(=O)N[C@@H](CC(C)C)C(=O)N1CCC[C@H]1C(=O)N[C@@H](CC(=O)O)C(=O)N[C@@H](C)C(=O)N[C@@H](Cc1ccccc1)C(=O)N[C@@H](Cc1ccccc1)C(=O)N[C@@H](CCCCN)C(=O)N1CCC[C@H]1C(=O)N1CCC[C@H]1C(=O)N[C@@H](CCC(=O)O)C(N)=O (Ac-PQTVPMRLRKLPDAFFKPPE-NH2)
